Tests used:
MMP-9 = test: IHC staining of MMP-9 in steatohepatitis liver; format: in vivo, mice; details: treatment and protection groups
Protocol: In the 14-week experiment, mice were fed a HFD from week 1 to week 14. During the 3 month experiments, KMUP-1 HCl (2.5 mg) was added to 200 ml tap water and) and drink for 14 weeks or for the last 6 weeks on mice or obese mice fed HFD, separately. 5 mice had free access to drinking water from week 1 to week 14 (protective group) or from week 8 to week 14 (treatment group). Tap water was used to normalize mineral nutrition (Scheme A).
For IHC of MMP-9/TNFα, HSL/p-HSL/ATGL and eNOS/IL-10, antigen retrieval of de-paraffinated sections was performed in Dako target retrieval solution, pH 9.0, in a vegetable steamer followed by the quenching of endogenous peroxidase activity with 3.0% H2O2 in methanol. Sections were then incubated with specific primary antibodies overnight at 4° C. in a humidified chamber. The antibodies used included rabbit polyclonal anti-eNOS (1:50 dilution) (Abcam, Cambridge, UK) or rabbit monoclonal anti-cleaved caspase-3 (1:50 dilution) (Cell Signaling, USA). The sections were then examined using a DAKO REAL EnVision™ Detection System kit (DAKO, Carpinteria, Calif.) and counterstained with hematoxylin. Images were obtained through a Nikon Eclipse TE200-S microscope.

ABCA1 = ABCA1 expression in HepG2 cells; format: cell-based
Protocol: HepG2 cells were treated with various concentrations of drugs for 24 hours. Reactions were terminated by washing twice with cold PBS, and the cells were then harvested, Proteins in the whole-cell lysate were homogenized in an ice-cold lysis buffer and a protease inhibitor (Sigma-Aldrich, St. Louis, Mo., U.S.A.). The homogenate was centrifuged at 90, 000 g for 15 minutes at 4° C., and supernatant was recovered as the total cellular protein. Cytosolic and membrane fractions of HepG2 cells were prepared using a. CNM (Cytosol Nuclear Membrane) compartment protein extraction kit (BioChain Institute Inc., Hayward, Calif., U.S.A.) according to the manufacturer's instructions. All of the fractionated protein solutions were stored at −80° C. until analysis. To measure the expression levels of proteins by drugs, the total cell protein was extracted after incubation with treatments for 24 hours and then Western blotting analysis was performed as described previously.

PKA = PKA expression and immunoreactivity in HepG2 cells; format: cell-based

SMILES: Cn1c(=O)c2c(ncn2CCN2CCN(c3ccccc3Cl)CC2)n(C)c1=O [KMUP-1, 7-[2-[4-(2-chlorophenyl)piperazinyl]ethyl]-1,3-dimethyl xanthine]
- antibody response to MMP-9 (IHC, liver) (MMP-9): shaded by the treatment and almost disappeared in the protection group
- expression of ABCA1 (ABCA1; HepG2, 10^−9-10^−5 M): increased
- FPP- or GGPP-suppressed expression of ABCA1 (ABCA1; HepG2, KMUP-1 10^−9-10^−5 M with FPP or GGPP): reversed
- ABCA1 expression (FIG. 24D) (ABCA1; HepG2, simvastatin, KMUP-1, Y27632 10^−5M, C3 exoenzyme): increased
- PKA immunoreactivity (green fluorescence) (PKA): increased
- oxLDL (200 μg/mL)-induced reduction of PKA expression (PKA; 1, 10, 100 μM): reversed
- PKA protein expression (PKA; 10, 20, 40 µM, in the presence of LDL (500 μg/mL)): could not significantly affect
